{"source": "paper PMC12400318", "about": "(Biochemical Journal, 2025)", "key": {"[1]": {"target": "T1, T. melanesiensis CtfAB (T. mel CtfAB; WT-CtfAB) (Thermosipho melanesiensis, UniProt A6LM39+A6LM40, A6LM39:E46D)", "T1 sequence (A6LM39 entry or part of it E46D, one chain of several)": "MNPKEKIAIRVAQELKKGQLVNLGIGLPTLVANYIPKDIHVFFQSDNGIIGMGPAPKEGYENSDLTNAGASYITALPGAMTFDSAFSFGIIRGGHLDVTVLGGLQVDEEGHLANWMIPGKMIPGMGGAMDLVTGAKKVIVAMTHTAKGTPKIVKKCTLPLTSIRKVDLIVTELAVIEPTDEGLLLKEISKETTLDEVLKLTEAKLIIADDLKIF", "design": "gene Tmel_1136", "conditions": "acetate from crystallisation buffer; pocket next to residue 46"}, "[2]": {"target": "T2, T. melanesiensis CtfAB (T. mel CtfAB; WT-CtfAB) (Thermosipho melanesiensis, UniProt A6LM39+A6LM40, A6LM39:F42T/A6LM39:S45C)", "T2 construct": "gene Tmel_1136; co-expressed in E. coli Rosetta 2(DE3)pLysS; N-terminal 6xHis on CtfA, untagged CtfB; subunits Mr 23-25 kDa; heterotetramer (two CtfA-CtfB heterodimers) in crystals", "T2 sequence (A6LM39 entry or part of it F42T/S45C, one chain of several)": "as the sequence (A6LM39 entry or part of it E46D, one chain of several) above, with F42T, S45C, D46E counted along it", "experiment": "X-ray crystal structure, […] Å", "format": "binding"}, "[3]": {"target": "T3, T. melanesiensis CtfAB (T. mel CtfAB; WT-CtfAB) (Thermosipho melanesiensis, UniProt A6LM39+A6LM40)", "T3 sequence (A6LM40 1-217)": "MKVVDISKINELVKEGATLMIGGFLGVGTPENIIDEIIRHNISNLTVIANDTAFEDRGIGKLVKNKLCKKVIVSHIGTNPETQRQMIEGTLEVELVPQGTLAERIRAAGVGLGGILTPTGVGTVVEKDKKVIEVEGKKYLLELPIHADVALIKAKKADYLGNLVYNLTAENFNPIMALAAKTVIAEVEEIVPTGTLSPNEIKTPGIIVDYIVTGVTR", "T3 sequence (A6LM39 1-214)": "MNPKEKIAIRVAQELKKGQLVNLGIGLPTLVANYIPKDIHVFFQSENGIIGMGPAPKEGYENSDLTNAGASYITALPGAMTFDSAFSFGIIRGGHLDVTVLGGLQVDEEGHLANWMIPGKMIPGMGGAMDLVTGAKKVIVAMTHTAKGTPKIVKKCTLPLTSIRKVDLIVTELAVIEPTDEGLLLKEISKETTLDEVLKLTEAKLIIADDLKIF", "design": "gene Tmel_1136", "conditions": "rate-equation constant of substrate B (acetate) in the forward fit, not a separate inhibition assay; 100 mM Tris-HCl, 40 mM MgCl2, 5% glycerol, pH 7.5, 65 °C"}, "[4]": {"target": "T4, T. melanesiensis CtfAB (T. mel CtfAB; WT-CtfAB) (Thermosipho melanesiensis, UniProt A6LM39+A6LM40, A6LM39:E46S)", "T4 construct": "gene Tmel_1136", "T4 sequence (A6LM39 1-214 E46S, one chain of several)": "as the sequence (A6LM39 entry or part of it E46D, one chain of several) above, with D46S counted along it", "conditions": "acetate from crystallisation buffer; second acetate in place of the catalytic glutamate carboxylate"}, "[5]": {"target": "T1, T. melanesiensis CtfAB (T. mel CtfAB; WT-CtfAB)", "experiment": "hydrolase activity assay", "format": "biochemical", "design": "gene Tmel_1136; co-expressed in E. coli Rosetta 2(DE3)pLysS; N-terminal 6xHis on CtfA, untagged CtfB; subunits Mr 23-25 kDa; heterotetramer (two CtfA-CtfB heterodimers) in crystals", "conditions": "CoA hydrolase instead of transferase; acetate not required"}, "[6]": {"target": "T3, T. melanesiensis CtfAB (T. mel CtfAB; WT-CtfAB)", "experiment": "acetoacetyl-CoA Mg-enolate consumption at […] nm; global ping-pong bi-bi fit with inhibition", "format": "biochemical", "design": "gene Tmel_1136; co-expressed in E. coli Rosetta 2(DE3)pLysS; N-terminal 6xHis on CtfA, untagged CtfB; subunits Mr 23-25 kDa; heterotetramer (two CtfA-CtfB heterodimers) in crystals", "conditions": "read-out: Ki,Q"}, "purified protein [7]": {"substrate": "CC(=O)CC(=O)SCCNC(=O)CCNC(=O)[C@H](O)C(C)(C)COP(=O)(O)OP(=O)(O)OC[C@H]1O[C@@H](n2cnc3c(N)ncnc32)[C@H](O)[C@@H]1OP(=O)(O)O", "experiment": "purified protein", "format": "biochemical, Thermosipho melanesiensis", "conditions": "forward reaction, co-substrate acetate (18.75-375 mM), 100 mM Tris-HCl, 40 mM MgCl2, 5% glycerol, pH 7.5, 65 °C, abstract prints 135 μM"}, "purified protein [8]": {"substrate": "CC(=O)SCCNC(=O)CCNC(=O)[C@H](O)C(C)(C)COP(=O)(O)OP(=O)(O)OC[C@H]1O[C@@H](n2cnc3c(N)ncnc32)[C@H](O)[C@@H]1OP(=O)(O)O", "experiment": "purified protein", "format": "biochemical, Thermosipho melanesiensis", "conditions": "reverse reaction, co-substrate acetoacetate (3.75-18.75 mM), 100 mM Tris-HCl, 40 mM MgCl2, 5% glycerol, pH 7.5, 65 °C"}, "purified protein [9]": {"substrate": "CC(=O)CC(=O)O", "experiment": "purified protein", "format": "biochemical, Thermosipho melanesiensis", "conditions": "reverse reaction, co-substrate acetyl-CoA (0.033-0.4 mM), 100 mM Tris-HCl, 40 mM MgCl2, 5% glycerol, pH 7.5, 65 °C"}, "purified protein [10]": {"substrate": "CC(=O)O", "experiment": "purified protein", "conditions": "forward reaction, co-substrate acetoacetyl-CoA (0.025-0.4 mM), 100 mM Tris-HCl, 40 mM MgCl2, 5% glycerol, pH 7.5, 65 °C"}, "[11]": {"target": "the molecule itself", "experiment": "crystal structure; hanging drop, purified co-expressed CtfAB 5-6 mg/mL in 10 mM MOPS, 5% glycerol, 50 mM Na2SO4, 50 mM NaCl, 1 mM DTT, pH 7.5; reservoir 100 mM Na acetate pH 4.9-5.5, 6-10% PEG 3350; F42T/S45C co-crystal with 5-10 mM acetyl-CoA; space group P4(1)2(1)2"}}}
{"molecule": "CC(=O)O", "note": "[acetate]", "values": [{"measurement": "X-ray crystal structure, 2.2 Å", "setting": "[1]", "result": "Acetate molecules were identified in every CtfAB structure in the substrate-binding pocket"}, {"measurement": "X-ray crystal structure, 1.9 Å", "setting": "[2]; acetate from crystallisation buffer (100 mM Na acetate), two molecules near E46, acetyl-CoA also bound", "result": "difference density for two acetate molecules in the CtfAB F42TS45C-CoA structure"}, {"measurement": "Ki,B", "setting": "[3]", "result": "24.7 ± 16.6", "unit": "mM"}, {"measurement": "X-ray crystal structure, 2.6 Å", "setting": "[4]", "result": "a second acetate molecule binds in the space normally occupied by the catalytic glutamate"}]}
{"molecule": "CC(=O)CC(=O)SCCNC(=O)CCNC(=O)[C@H](O)C(C)(C)COP(=O)(O)OP(=O)(O)OC[C@H]1O[C@@H](n2cnc3c(N)ncnc32)[C@H](O)[C@@H]1OP(=O)(O)O", "note": "[acetoacetyl-CoA]", "values": [{"measurement": "hydrolase activity assay", "setting": "[5]", "result": "converted the transferase into a hydrolase, with activity confirmed on acetoacetyl-CoA"}]}
{"molecule": "CC(=O)SCCNC(=O)CCNC(=O)[C@H](O)C(C)(C)COP(=O)(O)OP(=O)(O)OC[C@H]1O[C@@H](n2cnc3c(N)ncnc32)[C@H](O)[C@@H]1OP(=O)(O)O", "note": "[acetyl-CoA]", "values": [{"measurement": "Ki", "setting": "[6]", "result": "1.27 ± 0.276", "unit": "mM"}, {"measurement": "X-ray crystal structure, 1.9 Å", "setting": "[2]; co-crystal with 5-10 mM acetyl-CoA, site in CtfB, pantetheine part partly disordered", "result": "A co-crystal of the mutant CtfB F42T/S45C and acetyl-CoA was grown"}]}
{"molecule": "T. melanesiensis CtfAB (T. mel CtfAB; WT-CtfAB) (Thermosipho melanesiensis BI429) (protein, co-expressed in E. coli Rosetta 2(DE3)pLysS; N-terminal 6xHis on CtfA, untagged CtfB; subunits Mr 23-25 kDa; heterotetramer (two CtfA-CtfB heterodimers) in crystals) chain 1: MKVVDISKINELVKEGATLMIGGFLGVGTPENIIDEIIRHNISNLTVIANDTAFEDRGIGKLVKNKLCKKVIVSHIGTNPETQRQMIEGTLEVELVPQGTLAERIRAAGVGLGGILTPTGVGTVVEKDKKVIEVEGKKYLLELPIHADVALIKAKKADYLGNLVYNLTAENFNPIMALAAKTVIAEVEEIVPTGTLSPNEIKTPGIIVDYIVTGVTR chain 2: MNPKEKIAIRVAQELKKGQLVNLGIGLPTLVANYIPKDIHVFFQSENGIIGMGPAPKEGYENSDLTNAGASYITALPGAMTFDSAFSFGIIRGGHLDVTVLGGLQVDEEGHLANWMIPGKMIPGMGGAMDLVTGAKKVIVAMTHTAKGTPKIVKKCTLPLTSIRKVDLIVTELAVIEPTDEGLLLKEISKETTLDEVLKLTEAKLIIADDLKIF", "values": [{"measurement": "Km", "setting": "purified protein [7]", "result": "138 ± 28.8", "unit": "µM"}, {"measurement": "Km", "setting": "purified protein [8]", "result": "322 ± 41", "unit": "µM"}, {"measurement": "Km", "setting": "purified protein [9]", "result": "1655 ± 331", "unit": "µM"}, {"measurement": "Km", "setting": "purified protein [10]", "result": "84700 ± 15600", "unit": "µM"}]}
{"molecule": "Thermosipho melanesiensis CtfAB heterodimer (His6-CtfA with CtfB), wild type (complex, CoA transferase subunit A (CtfA) of Thermosipho melanesiensis, Tmel_1136, WP_012057350; as the chain of m1; 3-oxoacid CoA-transferase subunit B (CtfB) of Thermosipho melanesiensis, Tmel_1135, WP_012057349; as the chain of m2; Used for the self-association of the CtfAB heterodimer into a heterotetramer and higher oligomers; also called T. mel CtfAB; WT-CtfAB; not shown: His6, N-terminal, kept) chain 1: MKVVDISKINELVKEGATLMIGGFLGVGTPENIIDEIIRHNISNLTVIANDTAFEDRGIGKLVKNKLCKKVIVSHIGTNPETQRQMIEGTLEVELVPQGTLAERIRAAGVGLGGILTPTGVGTVVEKDKKVIEVEGKKYLLELPIHADVALIKAKKADYLGNLVYNLTAENFNPIMALAAKTVIAEVEEIVPTGTLSPNEIKTPGIIVDYIVTGVTR chain 2: MNPKEKIAIRVAQELKKGQLVNLGIGLPTLVANYIPKDIHVFFQSENGIIGMGPAPKEGYENSDLTNAGASYITALPGAMTFDSAFSFGIIRGGHLDVTVLGGLQVDEEGHLANWMIPGKMIPGMGGAMDLVTGAKKVIVAMTHTAKGTPKIVKKCTLPLTSIRKVDLIVTELAVIEPTDEGLLLKEISKETTLDEVLKLTEAKLIIADDLKIF", "values": [{"measurement": "stoichiometry N", "setting": "[11]", "result": "2 heterodimers in the heterotetramer"}]}
